Assay results taken from patent US4636563A, “Antipsychotic γ-carbolines” (American Home Products Corporation, priority 1985, dated 1987).

Tests used:
[1] = target: T1, limbic D-2 (dopamine receptor) (Rattus norvegicus, UniProt P61169); test: Limbic D-2 binding (3H-spiroperidol, homogenized limbic brain tissue); details: 95% confidence interval in brackets, read-out: Limbic D-2 inhibition constant (Ki)
T1 construct: from tissue; host or cells: homogenized limbic brain tissue
Protocol: Binding in the presence of the test compound is expressed as a percent of specific binding (total binding less binding in the presence of 1 μM (+)butaclamol). An inhibition constant (Ki) is calculated for each test compound to catagorize its limbic D-2 binding potential. The larger the number, the less potential for dopamine receptor binding and attendant side effects from administration of the antipsychotic agent.
(§1) The following examples illustrate the production of compounds of this invention. After each example the pharmacological evaluation for the compound produced is presented. The conditioned avoidance tests are reported as relative activity for the shelf-jump (S-J) at the intraperitoneal (i.p.) dose administered in mg/kg and the AB50 is presented for the lever-response (L-R) test at the oral (p.o.) dose in mg/kg. The inhibition constant is reported for limbic D-2 binding expressed in nM concentration. Similarly, the inhibition constant for cortical 5-HT2 binding is reported as the inhibition constant in nM concentration.

[2] = system: conditioned avoidance responding (shelf-jump); test: Conditioned avoidance, shelf-jump response (S-J); format: in vivo, male CD rats
From the text: (§2) The antipsychotic properties of the compounds of this invention were established by standard pharmacologically accepted procedures involving two conditioned avoidance studies in which trained male CD rats (Charles River), 400-450 gm body weight are exposed to a fifteen second warning tone (conditioned stimulus) continued for an additional fifteen seconds accompanied by electric shock. The rat can avoid the electric shock by depression of a response lever (lever-response) or in a different study by jumping to an exposed shelf (shelf-jump response). In either test situation, a response during the initial warning tone is considered an avoidance response while a response during shock delivery is considered an escape response. The avoidance response is determined and expressed as a percentage of total trials from an appropriate number of trials and a 50% block in avoidance responding (AB50) is obtained from a dose-effect regression line. The shelf-jump response test procedure follows that of Herman et al., Comm. in Psychopharm., 3, pp. 165-171 (1979).
as §1

serotonin-2 receptors = target: T2, serotonin-2 receptors (Rattus norvegicus, UniProt P14842); test: Cortical 5-HT2 binding (brain cortical tissue); details: for Ki: 95% confidence interval in brackets, read-out: Cortical 5-HT2 inhibition constant (Ki)
T2 construct: In an analogous test procedure employing brain cortical tissue; from tissue; host or cells: brain cortical tissue
From the text: as §1

[3] = system: conditioned avoidance responding (lever-response); test: Conditioned avoidance, lever-response (L-R); format: in vivo, male CD rats; details: Rattus norvegicus, po; 95% confidence interval in brackets; read-out: L-R AB50 (50% block in avoidance responding)
From the text: as §2, §1

T2 sequence (P14842 whole entry): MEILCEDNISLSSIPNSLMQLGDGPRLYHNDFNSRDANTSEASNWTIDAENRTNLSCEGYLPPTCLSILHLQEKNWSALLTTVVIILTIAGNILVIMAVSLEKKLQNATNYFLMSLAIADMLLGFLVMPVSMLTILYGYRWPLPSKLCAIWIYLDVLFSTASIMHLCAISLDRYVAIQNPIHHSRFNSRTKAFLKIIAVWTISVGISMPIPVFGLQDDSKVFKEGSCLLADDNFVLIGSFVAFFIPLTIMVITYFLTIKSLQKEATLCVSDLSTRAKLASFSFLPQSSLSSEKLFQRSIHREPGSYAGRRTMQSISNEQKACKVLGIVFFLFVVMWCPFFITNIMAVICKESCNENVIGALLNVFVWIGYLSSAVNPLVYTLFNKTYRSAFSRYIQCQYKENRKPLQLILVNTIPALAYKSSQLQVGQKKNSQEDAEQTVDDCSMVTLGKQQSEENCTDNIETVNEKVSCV
T1 sequence (P61169 whole entry): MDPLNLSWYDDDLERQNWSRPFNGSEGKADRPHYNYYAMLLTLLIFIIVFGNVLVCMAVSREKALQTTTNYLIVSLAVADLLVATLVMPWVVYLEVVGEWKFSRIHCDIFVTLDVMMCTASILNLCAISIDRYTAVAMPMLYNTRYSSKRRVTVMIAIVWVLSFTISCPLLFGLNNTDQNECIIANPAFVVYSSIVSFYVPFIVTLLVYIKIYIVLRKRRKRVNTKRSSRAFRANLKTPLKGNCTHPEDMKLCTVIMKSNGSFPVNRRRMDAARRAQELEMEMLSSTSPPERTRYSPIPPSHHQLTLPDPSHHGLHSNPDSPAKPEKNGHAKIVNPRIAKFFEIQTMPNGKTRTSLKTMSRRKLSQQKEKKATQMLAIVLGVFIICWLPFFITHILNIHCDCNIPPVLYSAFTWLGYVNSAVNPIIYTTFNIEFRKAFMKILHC

Compound	Ki [1] [nM]	Ki (serotonin-2 receptors) [nM]	S-J relative activity ([2]; 20 mg/kg i.p.)	ED50 [3] [mg/kg]	S-J relative activity ([2]; 40 mg/kg i.p.)	Ki at serotonin-2 receptors (serotonin-2 receptors; reference ligands)
c1ccc2nc(CCN3CCc4[nH]c5ccccc5c4C3)ccc2c1 [Example 5, 2,3,4,5-Tetrahydro-2-[2-(2-quinolinyl)ethyl]-1H-pyrido[4,3-b]indole]	–	–	–	–	Active	–
c1ccc2c3c([nH]c2c1)CCN(CCCCc1ccncc1)C3 [Example 6, 2,3,4,5-Tetrahydro-2-[4-(4-pyridinyl)butyl]-1H-pyrido[4,3-b]indole]	–	–	Active	> 20	Active	–
Clc1ccc2[nH]c3c(c2c1)CN(CCCCc1ccncc1)CC3 [Example 8, 8-Chloro-2,3,4,5-tetrahydro-2-[4-(4-pyridinyl)butyl]-1H-pyrido[4,3-b]indole]	106	60	–	36.1	Active	–
Clc1ccc2[nH]c3c(c2c1)CN(CCc1ccccn1)CC3 [Example 9, 8-Chloro-2,3,4,5-tetrahydro-2-[2-(2-pyridinyl)ethyl]-1H-pyrido[4,3-b]indole]	–	–	–	> 40	Active	–
Clc1ccc2[nH]c3c(c2c1)CN(CCCc1ccccn1)CC3 [Example 12, 8-Chloro-2,3,4,5-tetrahydro-2-[3-(2-pyridinyl)-propyl]-1H-pyrido[4,3-b]indole]	126	28	–	> 40	Active	–
NCCc1ccc(O)c(O)c1 [dopamine, reference compound]	–	–	–	–	–	inactive

Second part, led by results:

Ki [1] [nM]	Ki (serotonin-2 receptors) [nM]	Compound	S-J relative activity ([2]; 20 mg/kg i.p.)	ED50 [3] [mg/kg]	S-J relative activity ([2]; 40 mg/kg i.p.)	Ki at serotonin-2 receptors (serotonin-2 receptors; reference ligands)
143	480	Fc1ccc2[nH]c3c(c2c1)CN(CCCCc1ccncc1)CC3 [Example 1, 8-Fluoro-2,3,4,5-tetrahydro-2-[4-(4-pyridinyl)butyl]-1H-pyrido[4,3-b]-indole]	Active	15.1	–	–
26	173	Fc1ccc2[nH]c3c(c2c1)CN(CCc1ccccn1)CC3 [Example 2, 8-Fluoro-2,3,4,5-tetrahydro-2-[2-(2-pyridinyl)ethyl]-1H-pyrido[4,3-b]indole]	Active	37.6	–	–
–	211	Fc1ccc2[nH]c3c(c2c1)CN(CCc1ccncc1)CC3 [Example 3, 8-Fluoro-2,3,4,5-tetrahydro-2-[2-(4-pyridinyl)ethyl]1H-pyrido[4,3-b]indole]	–	–	–	–
185	–	Fc1ccc2[nH]c3c(c2c1)CN(CCc1ccc2ccccc2n1)CC3 [Example 4, 8-Fluoro-2,3,4,5-tetrahydro-2-[2-(2-quinolinyl)ethyl]-1H-pyrido[4-3-b]indole]	Active	–	–	–
–	252	c1cncc(CCCN2CCc3[nH]c4ccccc4c3C2)c1 [Example 7, 2,3,4,5-Tetrahydro-2-[3-(3-pyridinyl)propyl]-1H-pyrido[4,3-b]indole]	–	33.1	Active	–
82	–	Clc1ccc2[nH]c3c(c2c1)CN(CCc1ccc2ccccc2n1)CC3 [Example 10, 8-Chloro-2,3,4,5-tetrahydro-2-[2-(2-quinolinyl)ethyl]-1H-pyrido-[4,3-b]indole]	–	> 40	Active	–
395	136	Fc1ccc2[nH]c3c(c2c1)CN(CCCc1cccnc1)CC3 [Example 11, 8-Fluoro-2,3,4,5-tetrahydro-2-[3-(3-pyridinyl)propyl]1H-pyrido[4,3-b]indole]	Active	14.4	–	–
